The text below walks through data of patent publication US8263326B2, “Compounds and methods for modulating activation of NF-κB” (Signal Pharmaceuticals, LLC, priority 1998, dated 2012).

The test system of assay [1] is NF-κB nuclear translocation in HeLa cells. The assay is described as follows: Microinjection into HeLa cells, TNFα activation, p65 nuclear staining. The assay is classed as cell-based, human. As to conditions: 5 mg/ml peptide microinjected. The method, then:
(§1) HeLa cells were plated on a grid coverslips (Cellocate, Eppendorf) 18 hours before microinjection. Microinjection was performed with a 22 amino acid pIκBα peptide (pp21; Table I and SEQ ID NO:9) or a control phospho-Fos peptide (SEQ ID NO: 10) using a semi-automated apparatus (Eppendorf). Peptides were injected into the cell cytoplasm at a concentration of 5 mg/ml in 100 mM KCl, 5 mM Na2HPO4 (pH 7.2), and immediately activated with TNFα (200 units/mL) for either 20 minutes (for NF-κB translocation) or 3 hours (for E-selectin expression). Following activation, the cells were fixed and stained with p65 specific antibodies (Mercurio et al., Genes & Dev. 7:705, 1993; Santa Cruz) or monoclonal anti-E-selectin antibodies (R&D Systems).

In assay [2] the test system is E-selectin expression in primary human vascular endothelial cells (HUVEC). Nature of the assay: Microinjection into HUVEC, TNFα activation, E-selectin staining. The assay is classed as cell-based. As to conditions: microinjected peptide, TNFα 3 hours. How it is done: as §1
To further assess the functional consequences of NF-κB inhibition, the IκB-E3 inhibitory peptide was microinjected into primary human vascular endothelial cells (HUVEC; Chen et al, J. Immunol 155:3538, 1995). These cells respond to TNFα stimulation by surface expression of NF-κB regulated adhesion proteins, such as E-selection. HUVEC cells were plated, microinjected and stimulated as described above. Three hours post stimulation the cells were fixed and stained for expression of the NF-κB dependent E-selection. 75%-85% of the HUVEC cells were intensely stained for E-selectin following TNFα stimulation in several experiments. […] In contrast, the control pp-Fos peptide had no effect on E-selectin expression, as compared to non-microinjected cells (FIGS. 4F and 4H, column 4). Microinjection of a control, S32736A substituted IκBα peptide had no effect on the rate of E-selectin expression.

For assay [3], the system named is IκBα-ubiquitin ligase (pIκBα ubiquitination). The assay is described as follows: In vitro ubiquitination assay of phosphorylated, NF-κB complex-associated IκBα in HeLa cell extract. The assay is classed as biochemical, human. As to conditions: peptide at a concentration of 400 μM; Bestatin 40 μg/ml. How it is done: Following incubation, 1 μl of anti-p65 serum was added, and the NF-κB immune complex was immobilized to Protein A-Sepharose® and subjected to in vitro ubiquitination in HeLa cell extract as described by Alkalay et al. Ubiquitinated proteins were separated by SDS-PAGE and visualized by autoradiography.
To identify the IκBα-ubiquitin ligase recognition motif, various peptides were added at varying concentrations to the reaction mixtures in the presence of the peptidase inhibitor Bestatin (40 μg/ml). The peptides spanned the N-terminal signaling domain of the protein, and were phosphorylated at one or both serine residues (32 and 36), or were unmodified or serine-substituted. These peptides were included in the ubiquitination reaction at different concentrations and tested for inhibition of pIκBα specific ubiquitination. When conjugation of free IκBα was monitored, the translated protein was added directly to the conjugation reaction mixture.

A further assay concerns pIκBα degradation. Nature of the assay: Ubiquitin-dependent in vitro degradation assay with extracts from stimulated HeLa cells. As to conditions: 40 μM peptide, FIG. 2. The assay is classed as biochemical, human. The method, then:
FIG. 2 is an autoradiogram depicting the results of an in vitro ubiquitin-dependent degradation assay performed using extracts from stimulated HeLa cells. In each lane of the SDS-PAGE, the level of phosphorylated (upper band) and non-phosphorylated (lower band) HA-tagged IκBα polypeptide (SEQ ID NO: 12) following the degradation assay is shown. […] In lanes 2-6, ATP was included in the reaction mixture. 40 μM candidate modulating agents were added to the reactions shown in lanes 3-6: doubly phosphorylated IκBα peptide (pp21 (SEQ ID NO:9), lane 3); doubly phosphorylated IκBα peptide (pp19 (SEQ ID NO:8), lane 4); c-Fos phosphopeptide (ppFos (SEQ ID NO: 10), lane 5); and non-phosphorylated IκBα peptide (p21 (SEQ ID NO:9), lane 6).
The inhibitory pIκBα peptides were tested in a complementary ubiquitin-dependent in vitro degradation assay (Orian et al., J. Biol. Chem. 270:21707, 1995; Stancovski et al., Mol. Cell. Biol. 75:7106, 1995). Using this assay, only pIκBα derived from stimulated cells is degraded in vitro in a ubiquitin-dependent manner, whereas the non-phosphorylated IκBα from the same cell extract is not subject to degradation.

Another assay deals with IκB E3 in HeLa lysate. Nature of the assay: Fractionation of HeLa lysate over peptide-Sepharose columns, flow-through tested in ubiquitination assay. In kind it is binding, human. As to conditions: peptide coupled to NHS-Sepharose, HeLa extract, FIG. 3A. The method, then: pIκBα-ubiquitin conjugation and degradation requires a full complement of the ubiquitin system enzymes: E1, a specific E2 derived from the ubiquitin system fraction I, E2F1 (Alkalay et al., Proc. Natl. Acad. Sci. USA 92:10599, 1995; Chen et al., Cell 84:853, 1996) and a Fraction II-component E3. To identify the ubiquitin system component involved in the substrate recognition, HeLa lysate was fractionated over IκBα phosphopeptide columns, and the flow-through fractions were assayed for pIκBα conjugation. Peptides were coupled to NHS-Sepharose® (Pharmacia) according to the manufacturer's instructions at a concentration of 2 mg/ml. 100 μg of HeLa extract were incubated with 2.5 μl coupled resin in the presence of 0.1% NP40 and 3% ovalbumin for 1 hour at 4° C. The resin was discarded and the unbound material tested in the ubiquitination assay described above.

A further assay concerns the target T1, pIκBα (Homo sapiens, UniProt P25963).
T1 construct: The IκBα/NF-κB complex was immunopurified from HeLa cells; endogenous in cells; host or cells: HeLa cells
Nature of the assay: Binding of immobilized FLAG-tagged E3 family members to IκBα/NF-κB complex (Western blot). As to conditions: FIG. 11A. The method, then:
FIGS. 11A-11C are Western blots illustrating binding and ubiquitination specificity of E3 ubiquitin ligase family members. Within these figures, mβ-TrCP indicates mouse β-TrCP, hβ-TrCP indicates human β-TrCP, Δβ-TrCP indicates human β-TrCP with a deletion of the F box region and Slimb indicates the Drosophila Slimb protein. FIG. 11A illustrates selective binding to pIκBα. Proteins were immunoprecipitated through a FLAG epitope from transfected 293T cells, incubated with immunopurified IκBα/NF-κB complex, which had been treated (−/+IKK) as indicated and the bound material was analyzed by Western blotting with the indicated antibodies. […] FIG. 11C illustrates in vitro ubiquitination of pIκBα by the E3 family member proteins. Immunopurified FLAG-tagged proteins were incubated with ^35 S-labeled IκBα/NF-κB complexes, treated (−/+IKK) as indicated and subject to ubiquitination in the presence of ATPγS, ubiquitin. E1 and UBC5C. The IκBα substrate (composed of full-length and two degradation products), pIκBα-polyubiquitin conjugates and molecular size markers are indicated on the left.
The ability of these proteins to bind pIκBα specifically and assist in its ubiquitination was examined in a cell-free system. The IκBα/NF-κB complex was immunopurified from HeLa cells and the immune complex was either phosphorylated with IKK2-EE or mock-phosphorylated as described above. It was then incubated with the following immobilized FLAG-tagged E3 family members immunoprecipitated from transfected 293 cells: mouse β-TrCP (mβ-TrCP), human β-TrCP (hβ-TrCP), human β-TrCP with a deletion of the F box region residues 122-168 (Δβ-TrCP) and the Drosophila Slimb protein. The bound material was analyzed by Western blotting with anti-IκBα and anti-FLAG antibodies. […] Furthermore, β-TrCP binding was abrogated by a peptide representing the pIκBα recognition motif (pp10; DRHDS(PO3)GLDS(PO3)M (SEQ ID NO:29); see FIG. 11B, lane 3), but not by the control peptide (lane 4), specifying the site of pIκBα recognition of the conserved DS(PO3)GLDS(PO3) (SEQ ID NO:30) sequence.
In general terms: A western blot detects proteins with antibodies after separation by electrophoresis.

Non-standard residues stand in square brackets, D forms with d. No end group written: not given here. pS = N[C@@H](COP(=O)(O)O)C(=O)O

T1 sequence (P25963 whole entry): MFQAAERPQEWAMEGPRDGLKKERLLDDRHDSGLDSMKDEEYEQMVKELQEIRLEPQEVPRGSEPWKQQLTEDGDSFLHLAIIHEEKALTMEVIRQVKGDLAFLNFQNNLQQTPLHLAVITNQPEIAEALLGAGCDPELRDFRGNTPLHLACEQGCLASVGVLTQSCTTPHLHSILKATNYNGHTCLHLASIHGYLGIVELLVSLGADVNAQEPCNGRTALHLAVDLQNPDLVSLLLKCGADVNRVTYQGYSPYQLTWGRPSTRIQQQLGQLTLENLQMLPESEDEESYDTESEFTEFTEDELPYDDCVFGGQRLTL
T1 sequence (Q04206 whole entry partner): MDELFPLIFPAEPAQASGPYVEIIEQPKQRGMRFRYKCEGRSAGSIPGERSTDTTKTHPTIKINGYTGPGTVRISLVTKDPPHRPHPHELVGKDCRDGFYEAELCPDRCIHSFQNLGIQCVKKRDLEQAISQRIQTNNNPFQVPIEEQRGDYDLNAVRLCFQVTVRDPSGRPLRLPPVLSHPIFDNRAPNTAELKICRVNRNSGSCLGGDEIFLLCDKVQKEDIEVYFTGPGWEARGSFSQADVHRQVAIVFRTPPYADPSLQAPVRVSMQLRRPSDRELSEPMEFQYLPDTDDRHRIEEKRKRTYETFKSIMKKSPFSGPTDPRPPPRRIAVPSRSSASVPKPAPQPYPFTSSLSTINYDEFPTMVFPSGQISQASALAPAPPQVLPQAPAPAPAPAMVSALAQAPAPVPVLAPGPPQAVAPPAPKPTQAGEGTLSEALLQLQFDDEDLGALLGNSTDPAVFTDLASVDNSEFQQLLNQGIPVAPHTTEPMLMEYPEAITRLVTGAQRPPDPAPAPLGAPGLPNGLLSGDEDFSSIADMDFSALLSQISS

As to “pp21: doubly phosphorylated IκBα peptide, SEQ ID NO:9; 22 amino acid pIκBα peptide (CKKERLLDDRHD[pS]GLD[pS]MKDEE; listed as Homo sapiens)”, the “microinjected cells in which TNFα-stimulated NF-κB activation was abolished” value in assay [1] (TNFα 200 units/mL 20 minutes, several experiments) is recorded as 50%-70%. In assay [2], the “microinjected cells with inhibition of E-selectin expression” value is reported as 70%-80%.

Regarding “ppFos: c-Fos phosphopeptide, SEQ ID NO:10, control (IGRRGKVEQLSPEEEEKRR; not fully specified (residue 11); also: phosphorylated, sites not given here; listed as Homo sapiens)”, the “effect on the ubiquitination of pIκB” value in assay [3] is “no detectable effect”. Besides, the “effect on specific pIκBα degradation” value in the assay on pIκBα degradation is “no effect”. In addition, in the assay on IκB E3 in HeLa lysate, the “IκBα conjugation capacity of column flow-through fraction” value was “retained full IκBα conjugation capacity”. Moreover, in assay [1] (compared to non-microinjected cells), the “effect on the rate of NF-κB induced nuclear translocation” value is “no effect”. Further, the “effect on E-selectin expression” value in assay [2] is given as “no effect”.

On to “p21 S/A: serine 32, 36 to alanine substituted IκBα peptide, SEQ ID NO:11 (CKKERLLDDRHDAGLDAMKDEE; listed as Homo sapiens)”, for which the “effect on the ubiquitination of pIκB” value in assay [3] is reported as “no detectable effect”. For the same molecule, the “IκBα conjugation capacity of column flow-through fraction” value in the assay on IκB E3 in HeLa lysate is “retained full IκBα conjugation capacity”. Further, the “effect on E-selectin expression” value in assay [2] is “no effect”.

Consider “p21: non-phosphorylated IκBα peptide, SEQ ID NO:9 (CKKERLLDDRHDSGLDSMKDEE; listed as Homo sapiens)”, for which the “effect on the ubiquitination of pIκB” value in assay [3] is “no detectable effect”. The “effect on specific pIκBα degradation” value with pIκBα degradation is recorded as “no effect”.

B1: mβ-TrCP: FLAG-tagged mouse β-TrCP, E3 family member (protein)
chain: MDPAEAVLQEKALKFMNSSEREDCNNGEPPRKIIPEKNSLRQTYNSCARLCINQETVCLTSTAMKTENCVAKAKLANGTSSMIVPKQRKLSASYEKEKELCVKYFEQWSESDQVEFVEHLISQMCHYQHGHINSYLKPMLQRDFITALPARGLDHIAENILSYLDAKSLCAAELVCKEWYRVTSDGMLWKKLIERMVRTDSLWRGLAERRGWGQYLFKNKPPDENAPPNSFYRALYPKIIQDIETIESNWRCGRHSLQRIHCRSETSKGVYCLQYDDQKIVSGLRDNTIKIWDKSTLECKRILTGHTGSVLCLQYDERVIITGSSDSTVRVWDVNAGEMLNTLIHHCEAVLHLRFNNGMMVTCSKDRSIAVWDMASPTDITLRRVLVGHRAAVNVVDFDDKYIVSASGDRTIKVWNTSTCEFVRTLNGHKRGIACLQYRDRLVVSGSSDNTIRLWDIECGACLRVLEGHEELVRCIRFDNKRIVSGAYDGKIKVWDLMAALDPRAPAGTLCLRTLVEHSGRVFRLQFDEFQIVSSSHDDTILIWDFLNDPAAHAEPPRSPSRTYTYISR
modifications: left off: small tags and cut ends
notes: FLAG-tagged mouse β-TrCP, E3 family member
As for B1, in the assay with pIκBα (comparison between family members), the “relative binding of IκBα / pIκBα” value is on record as “far better than the highly homologous Drosophila protein”. Besides, the “binding to IKK-phosphorylated versus mock-phosphorylated IκBα” value with pIκBα (FLAG-tagged protein from transfected 293 cells) is recorded as “exclusively bound IKK-phosphorylated, but not mock-phosphorylated, IκBα”.
